Measured values from article PMC10779143, “Collagen-like Osteoclast-Associated Receptor (OSCAR)-Binding Motifs Show a Co-Stimulatory Effect on Osteoclastogenesis in a Peptide Hydrogel System” (International Journal of Molecular Sciences, 2023).
“Also recorded” adds a separate entry of the source. Where a SMILES comes first, the peptide text is derived from it. [ ]: non-standard residue; d: D form. Hyp = O=C(O)[C@@H]1C[C@@H](O)CN1

What was measured:
[1] = test system: TRAP gene expression, Raw 264.7 cells; test: qRT-PCR TRAP gene expression, Raw 264.7 cells on hydrogels; assay type: cell-based; conditions: incorporated in FF/S/RGDH hydrogel, 10 ng/mL hRANKL
Text: (§1) Fmoc-FF/S (Fmoc-diphenylalanine/serine, 1:1 molar ratio) and Fmoc-FF/S/RGD (1:0.5:0.5 molar ratio) peptides were provided by Biogelx Ltd., Edinburgh, UK. Hydroxyapatite (Hap) nanopowder (formula: Ca10(PO4)6(OH)2, with average particle size <200 nm) was purchased from Sigma-Aldrich (Dorset, UK, product code: 677418) and used as received. Hydrogels made up of Fmoc-based peptides and hydroxyapatite were fabricated as described previously. Hap-decorated Fmoc-FF/S/RGD hydrogels (FF/S/RGDH) were tested in combination with OP1_Hyp, OP1_Pro, and OCol1 to evaluate the contribution of OSCAR as a co-stimulatory pathway for OCP differentiation. […]
(§2) The day after hydrogel fabrication, 2 mL of Raw 264.7 cells (4 × 10^5 cells/mL) were seeded on top of FF/S/RGDH hydrogels containing the collagen-like OSCAR-binding peptides (OP1_Hyp, OP1_Pro) or recombinant collagen-like protein (OCol1). […] After 7 days of culture, cell viability on the peptide- or protein-modified FF/S/RGDH hydrogels was evaluated by using a LIVE/DEAD assay (ThermoFisher Scientific, Swindon, UK). […] After 30 min of incubation, cells were washed 3 times in PBS and imaged using a Nikon Eclipse 50i fluorescence microscope (Tokyo, Japan) (emission wavelengths: green channel for live cells: 515 nm; red channel for dead cells: 635 nm; excitation wavelength: 495 nm). […]
(§3) Gene expression of OC markers was evaluated as previously described. […]

[2] = test system: OSCAR gene expression, Raw 264.7 cells; test: qRT-PCR OSCAR gene expression, Raw 264.7 cells on peptide-coated TCP; assay type: cell-based; conditions: n = 3; for OSCAR expression, 100 ng/mL hRANKL: 5 days vs day 1, relative to GAPDH; for OSCAR expression, 10 ng/mL hRANKL: 5 days; for OSCAR expression, 10 ng/mL hRANKL / OSCAR expression, 0-1 ng/mL hRANKL: relative to GAPDH; for OSCAR expression, 0-1 ng/mL hRANKL: five days
Procedure: (§4) Raw 264.7 cells were cultured and passaged as previously described. Cell adhesion to OP1_Hyp and OP1_Pro was assessed as shown by Barrow et al.. Briefly, 48-well plates were coated with 10 µg/mL of OSCAR-binding peptides overnight at 4 °C. The excess peptide was then removed by washing with PBS before adding 1% BSA to block non-specific binding sites for 1 h at 25 °C. Raw 264.7 cells were then resuspended at a concentration of 2 × 10^5 cells/mL and added to the well. Cells were cultured with different concentrations of human RANKL (hRANKL) (catalogue number: 310-01 from Peprotech, London, UK) (0–100 ng/mL) for up to 5 days to assess the contribution of the OSCAR-binding peptides OP1_Hyp and OP1_Pro to the differentiation of Raw 264.7 cells to mature OCs.
(§5) Gene expression of OC markers was evaluated as previously described. A StepOne™ Real-Time PCR System (Applied Biosystems, Warrington, UK) was used, with TaqMan probes and a universal PCR Master Mix (Life Technologies, Carlsbad, CA, USA, 4304437) in a total volume of 10 µL. The TaqMan probes for TRAP and OSCAR were Mm00475698_m1 and Mm01338227_g1, respectively. Data were analysed using the 2^−∆Ct method and normalised to the endogenous housekeeping gene GAPDH (Mm99999915_g1). Experiments were performed in triplicate.

[3] = test system: TRAP gene expression, Raw 264.7 cells; test: qRT-PCR TRAP gene expression, Raw 264.7 cells on peptide-coated TCP; assay type: cell-based; conditions: for TRAP expression, 100 ng/mL hRANKL: 5 days vs day 1, relative to GAPDH; for TRAP expression, 100 ng/mL hRANKL / TRAP expression, 0-1 ng/mL hRANKL: n = 3; for TRAP expression, 10 ng/mL hRANKL: 5 days, n = 3, lower than with 100 ng/mL hRANKL; for TRAP expression, 10 ng/mL hRANKL / TRAP expression, 0-1 ng/mL hRANKL: relative to GAPDH; for TRAP expression, 0-1 ng/mL hRANKL: five days
Procedure: as §4, §5

[4] = CD analysis of secondary structure (collagen triple helix) and refolding; assay type: physicochemical; conditions: CD Buffer pH 7.4; for Triple helical features (positive ellipticity band) at 70 °C: CD at 70 °C; for Secondary structure by CD: CD spectra 190-260 nm at 10 °C, 0.5 mg/mL peptides, 0.2 mg/mL OCol1; for Refolding of the triple helix after denaturation: cooling from 70 °C to 10 °C, approximately 30 min, 210 µM peptides, 12 µM OCol1
Procedure: Secondary structures of OP1_Hyp, OP1_Pro, and OCol1 were analysed by circular dichroism (CD) spectroscopy using a Jasco® J-810 spectropolarimeter (UCI, Irvine, CA, USA) equipped with a Peltier temperature controller. OP1_Hyp and OP1_Pro were resuspended up to a concentration of 0.5 mg/mL in a CD transparent buffer (10 mM K2HPO4, 10 mM KH2PO4, 150 mM KF, pH 7.4, CD Buffer) [15] and kept for 24 h at 4 °C to allow for the formation of the collagen triple helical structure. OCol1 was exchanged to CD Buffer using a PD 10 disposable desalting column (GE17-0851-01, Merck, Feltham, UK). Briefly, the column was equilibrated with five column volumes of CD Buffer before the addition of OCol1 to the storage buffer. After flow-through collection, 0.5 mL fractions were collected into 1.5 mL Eppendorf tubes. The OCol1 elution fractions were quickly analysed by CD, and the one with the highest concentration (0.2 mg/mL) was used. CD spectra were measured between 190 nm and 260 nm at 10 °C using a 1 mm path-length CD-matched quartz cuvette (Starna Scientific, Ilford, UK). Data were collected every 0.2 nm with a 1 nm bandwidth. Spectral baselines were corrected by subtracting the spectrum of CD Buffer (blank) collected under the same conditions. Additionally, the thermal stability of OP1_Hyp, OP1_Pro, and OCol1 was analysed. Thermal transition profiles were recorded between 10 °C and 60 °C (OP1_Hyp and OP1_Pro) or 70 °C (OCol1) at 222 nm with a data pitch of 0.2 °C, a bandwidth of 1 nm, a detector response time of 32 s, and a temperature slope of 1 °C/min. Samples were cooled back to 10 °C after the different transitions had been completed, and final spectra were recorded at that temperature. Ellipticity in millidegrees was converted to mean residue molar ellipticity Θ (degree cm^2 dmol^−1) by normalising for the number of residues on each peptide or protein [23].

[5] = biological target: T1, recombinant human OSCAR-Fc chimera (Homo sapiens, UniProt Q8IYS5); test: Surface plasmon resonance (SPR) analysis of the peptide-OSCAR interaction; assay type: binding; conditions: 25 °C; for Association/dissociation behaviour in sensorgrams: immobilised human OSCAR-Fc, pH 7.4
T1 construct: extracellular region of human OSCAR (Asp19-Asn229, NP_573399); purchased R&D Systems, Bio-Techne 9955-OS
T1 sequence (Q8IYS5 19-229 isoform Q8IYS5-2): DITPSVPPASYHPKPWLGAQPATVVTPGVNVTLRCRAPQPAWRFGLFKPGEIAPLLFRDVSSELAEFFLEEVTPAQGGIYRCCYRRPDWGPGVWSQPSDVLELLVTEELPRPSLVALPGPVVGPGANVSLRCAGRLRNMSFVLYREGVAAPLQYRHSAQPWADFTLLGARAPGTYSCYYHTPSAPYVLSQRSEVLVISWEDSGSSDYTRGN
Procedure: Surface plasmon resonance (SPR) was used to determine the binding affinity between OP1_Hyp or OP1_Pro and a recombinant human OSCAR-Fc chimera made from the extracellular region of human OSCAR (Asp19-Asn229, NP_573399) and the Fc domain from human IgG1 (Pro100-Lys330, P01857-1). A kinetic analysis was performed with immobilised OSCAR-Fc, OP1_Hyp, and OP1_Pro as analytes. A Langmuir 1:1 model was used to perform the kinetic analysis. This model is based on a simple interaction between ligand and analytes where a 1:1 molar complex is formed at equilibrium, i.e., A + B ⇄ AB. The kinetics of the reaction are determined by the association and dissociation rate constants (ka and kd, respectively), with an overall affinity constant (KD) given by KD = kd/ka.
SPR analyses were carried out on a Biacore™ T200 (Cytiva) using a Series S CM5 sensor chip with an assay running buffer of 10 mM PBS, 150 mM NaCl, 0.05% Tween20, pH 7.4. Reference and active flow cells were activated by injecting 70 μL of a 1:1 mixture of 0.2 M 1-ethyl-3-(3-dimethylaminopropyl)-carbodiimide (EDC) and 0.1 M N-hydroxysuccinimide (NHS) at 10 µL/min. Recombinant human OSCAR-Fc chimera (R&D Systems, Bio-Techne, Minneapolis, MN, USA, 9955-OS) was immobilised onto the active flow cell at 20 µg/mL in 10 mM sodium acetate pH 5.0 at 10 µL/min to 6880 response units (RU). Reference and active flow cells were blocked using 1 M ethanolamine, pH 8, at a flow rate of 10 µL/min. For kinetic and equilibrium binding analysis, OP1_Hyp and OP1_Pro peptides were flowed at 25 °C active and reference flow cells at 30 µL/min in assay running buffer at peptide concentrations of 5000—0 nM (OP1_Hyp) and 40,000—0 nM (OP1_Pro), using a dilution series. Surfaces were regenerated with a 10 s injection of 0.1 M glycine, pH 2.0. Data sets were analysed with the built-in BiaEvaluation software (version 4.1). The models used for analysis were the Langmuir 1:1 binding model and the steady-state analysis model. Data are presented as the mean and standard error of the mean (SEM) of triplicate runs.

Raw 264.7 cells [6] = test: F-actin staining / osteoclast-like morphology and differentiation of Raw 264.7 cells on hydrogels; assay type: cell-based; conditions: 10 ng/mL hRANKL
[7] = test system: OSCAR gene expression, Raw 264.7 cells; test: qRT-PCR OSCAR gene expression, Raw 264.7 cells on hydrogels; assay type: cell-based; conditions: 10 ng/mL hRANKL, relative to GAPDH, n = 3
Text: as §1, §2, §3

Raw 264.7 cells [8] = test: TRAP staining / osteoclast morphology of Raw 264.7 cells on peptide-coated tissue culture plastic; assay type: cell-based; conditions: for Osteoclast features / TRAP staining, 10 ng/mL hRANKL / Osteoclast features / TRAP staining, 100 ng/mL hRANKL / Differentiation without hRANKL (TRAP staining): 5 days on coated TCP; for Osteoclast features / TRAP staining, 10 ng/mL hRANKL: 10 ng/mL hRANKL (suboptimal); for Osteoclast features / TRAP staining, 100 ng/mL hRANKL: peptide effect masked by high hRANKL; for Differentiation without hRANKL (TRAP staining): no hRANKL added; for Overall effect on differentiation of Raw 264.7 cells on coated TCP: used as substrate on TCP
Procedure: as §4
After 5 days of post-culture, Raw 264.7 cells were fixed in 4% PFA for 15 min at room temperature. TRAP was stained following the manufacturer’s protocol and evaluated by light microscopy (ThermoFisher, Swindon, UK). Multinucleated TRAP+ cells containing more than three nuclei were scored as mature OCs.

| Retention of OSCAR binding on replacing Hyp with Pro ([5]; Hyp at position 3 replaced with Pro) | Compound | TRAP expression, day 3 to day 7 (comparison with literature) [1] | OSCAR expression, 100 ng/mL hRANKL [2] | OSCAR expression, 10 ng/mL hRANKL [2] | OSCAR expression, 0-1 ng/mL hRANKL [2] | TRAP expression, 100 ng/mL hRANKL [3] | TRAP expression, 10 ng/mL hRANKL [3] | TRAP expression, 0-1 ng/mL hRANKL [3] | Triple helical features (positive ellipticity band) at 70 °C [4] | Secondary structure by CD [4] | Refolding of the triple helix after denaturation [4] | Association/dissociation behaviour in sensorgrams [5] | Differentiation of Raw 264.7 cells to OCs on collagen-modified hydrogels (Raw 264.7 cells [6]; 7 days, incorporated in FF/S/RGDH hydrogel) | OC-like features, improvement vs unmodified hydrogels (Raw 264.7 cells [6]; hydrogels) | OSCAR expression change, day 3 to day 7 [7] | Osteoclast features / TRAP staining, 10 ng/mL hRANKL (Raw 264.7 cells [8]) | Osteoclast features / TRAP staining, 100 ng/mL hRANKL (Raw 264.7 cells [8]) | Differentiation without hRANKL (TRAP staining) (Raw 264.7 cells [8]) | OC differentiation effect, lower suboptimal hRANKL, comparison of peptides (Raw 264.7 cells [8]; coated TCP, lower, suboptimal hRANKL) | Overall effect on differentiation of Raw 264.7 cells on coated TCP (Raw 264.7 cells [8]) |
| --- | --- | --- | --- | --- | --- | --- | --- | --- | --- | --- | --- | --- | --- | --- | --- | --- | --- | --- | --- | --- |
|  | CC(=O)NCC(=O)N1CCC[C@H]1C(=O)N1C[C@H](O)C[C@H]1C(=O)NCC(=O)N1CCC[C@H]1C(=O)N1C[C@H](O)C[C@H]1C(=O)NCC(=O)N1CCC[C@H]1C(=O)N1C[C@H](O)C[C@H]1C(=O)NCC(=O)N[C@@H](C)C(=O)N1C[C@H](O)C[C@H]1C(=O)NCC(=O)N1CCC[C@H]1C(=O)N[C@@H](C)C(=O)NCC(=O)N[C@@H](Cc1ccccc1)C(=O)N[C@@H](C)C(=O)NCC(=O)N1CCC[C@H]1C(=O)N1C[C@H](O)C[C@H]1C(=O)NCC(=O)N1CCC[C@H]1C(=O)N1C[C@H](O)C[C@H]1C(=O)NCC(=O)N1CCC[C@H]1C(=O)N1C[C@H](O)C[C@H]1C(N)=O [OP1_Hyp] (Ac-GP[Hyp]GP[Hyp]GP[Hyp]GA[Hyp]GPAGFAGP[Hyp]GP[Hyp]GP[Hyp]-NH2) | increased significantly between day 3 and day 7 of culture | significantly higher compared to day 1 | still significantly higher | either expressed at lower amounts or did not change significantly after five days of culture | significantly higher after 5 days | TRAP expression was lower | either expressed at lower amounts or did not change significantly after five days of culture | disappeared from the CD spectra | a band of positive ellipticity with a maximum at ~220 nm and a deep band of negative ellipticity with a minimum at ~198 nm, previously associated with the typical conformation of the collagen triple helix | partial recovery of the collagen structure | a progressive binding phase to OSCAR with a slow release at all the concentrations tested | the effect was more evident with OP1_Hyp; also recorded: positive effect on osteoclastogenesis | greater bioactivity (i.e., higher nuclei/cell distribution, increased cell diameter) | increased significantly between day 3 and day 7 of culture | more cells showing OC-like features such as multinucleation; also recorded: still showed signs of osteoclastogenesis | typical OC features | not able to trigger any differentiation on their own | much more evident for OP1_Hyp compared to OP1_Pro | positive effect on differentiation |
| OSCAR binding is not abolished | Ac-GPOGPOGPOGAPGPAGFAGPOGPOGPO-NH2 [OP1_Pro] |  | significantly higher compared to day 1 | still significantly higher | either expressed at lower amounts or did not change significantly after five days of culture | significantly higher after 5 days | TRAP expression was lower | either expressed at lower amounts or did not change significantly after five days of culture | disappeared from the CD spectra | a band of positive ellipticity with a maximum at ~220 nm and a deep band of negative ellipticity with a minimum at ~198 nm, previously associated with the typical conformation of the collagen triple helix | partial recovery of the collagen structure | both association and dissociation phases occurred very quickly |  |  |  | still showed signs of osteoclastogenesis | typical OC features | not able to trigger any differentiation on their own |  | positive effect on differentiation |
